ChEMBL document CHEMBL1201861, “Genomics of Drug Sensitity in Cancer screening data, Wellcome Trust Sanger Institute”

Key:
Test in all cases: cells
[1] = tested on: A-427; type: functional, cell-based, Homo sapiens; settings: Homo sapiens, A-427;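 also: growth inhibition of human A-427 cells, read out by a cell viability assay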
Description: SANGER: Inhibition of human A427 cell growth in a cell viability assay.

[2] = tested on: 5637; type: functional, cell-based, Homo sapiens; settings: Homo sapiens
Description: SANGER: Inhibition of human 5637 cell growth in a cell viability assay.

[3] = tested on: LS-1034; type: functional, cell-based, Homo sapiens; settings: Homo sapiens, LS-1034
Description: SANGER: Inhibition of human LS-1034 cell growth in a cell viability assay.

[4] = tested on: PC-14; type: functional, cell-based, Homo sapiens; settings: Homo sapiens, PC-14;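 also: cell viability assay measuring inhibition of PC-14 cell growth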
Description: SANGER: Inhibition of human PC-14 cell growth in a cell viability assay.

[5] = tested on: ML-2; type: functional, cell-based; settings: Homo sapiens;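 also: growth inhibition of ML-2 cells, measured with a cell viability readout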
Description: SANGER: Inhibition of human ML-2 cell growth in a cell viability assay.

[6] = tested on: CGTH-W-1; type: functional, cell-based, Homo sapiens; settings: Homo sapiens, CGTH-W-1;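 also: growth inhibition of human CGTH-W-1 cells measured by cell viability assay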
Description: SANGER: Inhibition of human CGTH-W-1 cell growth in a cell viability assay.

[7] = tested on: ES1; type: functional, cell-based, Homo sapiens; settings: Homo sapiens, ES1;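 also: growth inhibition of ES1 cells, read out with a cell viability assay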
Description: SANGER: Inhibition of human ES1 cell growth in a cell viability assay.

[8] = tested on: NCI-H1993; type: functional, cell-based, Homo sapiens; settings: Homo sapiens, NCI-H1993;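 also: growth inhibition of the cancer cell line, assessed with a cell viability assay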
Description: SANGER: Inhibition of human NCI-H1993 cell growth in a cell viability assay.

[9] = tested on: SK-MEL-1; type: functional, cell-based; settings: Homo sapiens;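 also: growth inhibition of human SK-MEL-1 cells, read out by a cell viability assay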
Description: SANGER: Inhibition of human SK-MEL-1 cell growth in a cell viability assay.

[10] = tested on: MC-IXC; type: functional, cell-based, Homo sapiens; settings: Homo sapiens, MC-IXC;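 also: growth inhibition of MC-IXC cells, read out with a cell viability assay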
Description: SANGER: Inhibition of human MC-IXC cell growth in a cell viability assay.

[11] = tested on: KU-19-19; type: functional, cell-based, Homo sapiens; settings: Homo sapiens, KU-19-19
Description: SANGER: Inhibition of human KU-19-19 cell growth in a cell viability assay.

[12] = tested on: MFH-ino; type: functional, cell-based; settings: Homo sapiens;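 also: growth inhibition of human MFH-ino cells, read out by a cell viability assay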
Description: SANGER: Inhibition of human MFH-ino cell growth in a cell viability assay.

[13] = tested on: LB373-MEL-D; type: functional, cell-based, Homo sapiens; settings: Homo sapiens, LB373-MEL-D;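 also: growth inhibition of the cell line, read out in a cell viability assay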
Description: SANGER: Inhibition of human LB373-MEL-D cell growth in a cell viability assay.

[14] = tested on: SW1463; type: functional, cell-based, Homo sapiens; settings: Homo sapiens, SW1463;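 also: growth inhibition of SW1463 cells, determined with a cell viability assay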
Description: SANGER: Inhibition of human SW1463 cell growth in a cell viability assay.

[15] = tested on: EGI-1; type: functional, cell-based, Homo sapiens; settings: Homo sapiens, EGI-1;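 also: cell viability readout used to gauge growth inhibition of EGI-1 cells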
Description: SANGER: Inhibition of human EGI-1 cell growth in a cell viability assay.

[16] = tested on: COLO-320-HSR; type: functional, cell-based; settings: Homo sapiens;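 also: growth inhibition of COLO-320-HSR cells, determined with a cell viability assay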
Description: SANGER: Inhibition of human COLO-320-HSR cell growth in a cell viability assay.

[17] = tested on: SAS; type: functional, cell-based, Homo sapiens; settings: Homo sapiens, SAS;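 also: growth inhibition of SAS cells, read out with a cell viability assay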
[18] = tested on: HCC2218; type: functional, cell-based; settings: Homo sapiens;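 also: cell viability assay read-out, with IC50 given as the concentration that inhibits growth of the cell line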
Description: SANGER: Inhibition of human HCC2218 cell growth in a cell viability assay.

[19] = tested on: HCC1937; type: functional, cell-based, Homo sapiens; settings: Homo sapiens, HCC1937;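 also: growth inhibition measured with a cell viability read-out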
Description: SANGER: Inhibition of human HCC1937 cell growth in a cell viability assay.

[20] = tested on: KMOE-2; type: functional, cell-based; settings: Homo sapiens;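 also: growth inhibition of human KMOE-2 cells, read out with a cell viability assay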
Description: SANGER: Inhibition of human KMOE-2 cell growth in a cell viability assay.

[21] = tested on: NCI-H1395; type: functional, cell-based, Homo sapiens; settings: Homo sapiens, NCI-H1395;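 also: cell viability assay read-out quantifying reduced proliferation of human NCI-H1395 cells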
Description: SANGER: Inhibition of human NCI-H1395 cell growth in a cell viability assay.

[22] = tested on: OVCAR-8; type: functional, cell-based, Homo sapiens; settings: Homo sapiens, OVCAR-8;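 also: growth inhibition of human OVCAR-8 cells, read out by a cell viability assay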
Description: SANGER: Inhibition of human OVCAR-8 cell growth in a cell viability assay.

[23] = tested on: NCI-H1770; type: functional, cell-based; settings: Homo sapiens;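 also: growth inhibition of NCI-H1770 cells determined with a viability readout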
Description: SANGER: Inhibition of human NCI-H1770 cell growth in a cell viability assay.

[24] = tested on: MDA-MB-415; type: functional, cell-based; settings: Homo sapiens
[25] = tested on: NEC8; type: functional, cell-based, Homo sapiens; settings: Homo sapiens, NEC8;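 also: growth inhibition of human NEC8 cells, read out by a cell viability assay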
Description: SANGER: Inhibition of human NEC8 cell growth in a cell viability assay.

[26] = tested on: DSH1; type: functional, cell-based, Homo sapiens; settings: Homo sapiens, DSH1;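 also: growth inhibition of human DSH1 cells, measured with a cell viability readout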
Description: SANGER: Inhibition of human DSH1 cell growth in a cell viability assay.

[27] = tested on: SiHa; type: functional, cell-based, Homo sapiens; settings: Homo sapiens, SiHa;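 also: Viability-based readout of growth inhibition in SiHa cells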
Description: SANGER: Inhibition of human SiHa cell growth in a cell viability assay.

[28] = tested on: HOP-62; type: functional, cell-based, Homo sapiens; settings: Homo sapiens, HOP-62;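 also: cell growth inhibition determined with a viability assay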
Description: SANGER: Inhibition of human HOP-62 cell growth in a cell viability assay.

[29] = tested on: PSN1; type: functional, cell-based, Homo sapiens; settings: Homo sapiens, PSN1;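 also: suppression of growth of human PSN1 cells, read out by a cell viability assay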
Description: SANGER: Inhibition of human PSN1 cell growth in a cell viability assay.

[30] = tested on: EW-1; type: functional, cell-based, Homo sapiens; settings: Homo sapiens, EW-1;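 also: growth inhibition of the human EW-1 cell line, read out by a cell viability assay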
Description: SANGER: Inhibition of human EW-1 cell growth in a cell viability assay.

[31] = tested on: 786-0; type: functional, cell-based, Homo sapiens; settings: Homo sapiens
Description: SANGER: Inhibition of human 786-0 cell growth in a cell viability assay.

[32] = tested on: EOL1; type: functional, cell-based; settings: Homo sapiens;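 also: growth inhibition of EoL-1 cells, read out by a cell viability assay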
Description: SANGER: Inhibition of human EoL-1-cell cell growth in a cell viability assay.

[33] = tested on: LK-2; type: functional, cell-based, Homo sapiens; settings: Homo sapiens, LK-2;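 also: growth inhibition of LK-2 cells, read out with a viability assay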
Description: SANGER: Inhibition of human LK-2 cell growth in a cell viability assay.

[34] = tested on: CAKI-1; type: functional, cell-based, Homo sapiens; settings: Homo sapiens, CAKI-1;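 also: growth inhibition of CAKI-1 cells, measured by a cell viability assay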
Description: SANGER: Inhibition of human CAKI-1 cell growth in a cell viability assay.

[35] = tested on: CHL-1; type: functional, cell-based, Homo sapiens; settings: Homo sapiens, CHL-1;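 also: cell growth inhibition, read out with a cell viability assay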
Description: SANGER: Inhibition of human CHL-1 cell growth in a cell viability assay.

[36] = tested on: SNU1; type: functional, cell-based; settings: Homo sapiens;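 also: growth inhibition of human NCI-SNU-1 cells, measured with a cell viability assay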
Description: SANGER: Inhibition of human NCI-SNU-1 cell growth in a cell viability assay.

[37] = tested on: Lu-65; type: functional, cell-based; settings: Homo sapiens;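 also: growth inhibition of Lu-65 cancer cells, read out by a cell viability assay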
Description: SANGER: Inhibition of human LU-65 cell growth in a cell viability assay.

[38] = tested on: P12-Ichikawa; type: functional, cell-based; settings: Homo sapiens
[39] = tested on: EFO-27; type: functional, cell-based, Homo sapiens; settings: Homo sapiens, EFO-27;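 also: growth inhibition of EFO-27 cells, read out with a cell viability assay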
Description: SANGER: Inhibition of human EFO-27 cell growth in a cell viability assay.

[40] = tested on: J82; type: functional, cell-based; settings: Homo sapiens;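 also: growth inhibition of J82 cells, read out with a cell viability assay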
Description: SANGER: Inhibition of human J82 cell growth in a cell viability assay.

[41] = tested on: NCI-H446; type: functional, cell-based; settings: Homo sapiens;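 also: growth inhibition of NCI-H446 cells determined by a cell viability assay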
Description: SANGER: Inhibition of human NCI-H446 cell growth in a cell viability assay.

[42] = tested on: TE-9; type: functional, cell-based, Homo sapiens; settings: Homo sapiens, TE-9;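 also: cell growth inhibition, measured with a cell viability readout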
Description: SANGER: Inhibition of human TE-9 cell growth in a cell viability assay.

[43] = tested on: EW-11; type: functional, cell-based, Homo sapiens; settings: Homo sapiens, EW-11;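 also: growth inhibition of human EW-11 cells, measured with a cell viability assay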
Description: SANGER: Inhibition of human EW-11 cell growth in a cell viability assay.

[44] = tested on: SW 962; type: functional, cell-based, Homo sapiens; settings: Homo sapiens, SW 962;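 also: growth inhibition of human SW962 cells, read out by a cell viability assay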
Description: SANGER: Inhibition of human SW962 cell growth in a cell viability assay.

[45] = tested on: PA-1; type: functional, cell-based, Homo sapiens; settings: Homo sapiens, PA-1;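 also: IC50 for suppression of PA-1 cell proliferation, determined with a cell viability read-out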
Description: SANGER: Inhibition of human PA-1 cell growth in a cell viability assay.

[46] = tested on: HuTu80; type: functional, cell-based, Homo sapiens, HUTU-80; settings: Homo sapiens, HuTu80;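 also: growth inhibition of HuTu80 human cells, determined with a cell viability readout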
Description: SANGER: Inhibition of human HUTU-80 cell growth in a cell viability assay.

[47] = tested on: HGC-27; type: functional, cell-based, Homo sapiens; settings: Homo sapiens, HGC-27;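 also: growth inhibition of human HGC-27 cells, read out in a cell viability assay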
Description: SANGER: Inhibition of human HGC-27 cell growth in a cell viability assay.

[48] = tested on: KY821; type: functional, cell-based; settings: Homo sapiens;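 also: growth inhibition of human KY821 cells, read out by a cell viability assay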
[49] = tested on: HLE; type: functional, cell-based, Homo sapiens; settings: Homo sapiens, HLE;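 also: growth inhibition of human HLE cells, read out by a cell viability assay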
Description: SANGER: Inhibition of human HLE cell growth in a cell viability assay.

[50] = tested on: TGBC24TKB; type: functional, cell-based, Homo sapiens; settings: Homo sapiens, TGBC24TKB;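 also: growth inhibition of human TGBC24TKB cells, read out with a cell viability assay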
Description: SANGER: Inhibition of human TGBC24TKB cell growth in a cell viability assay.

[51] = tested on: NCI-H661; type: functional, cell-based, Homo sapiens; settings: Homo sapiens, NCI-H661;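 also: cell viability assay read-out, IC50 being the concentration that inhibits growth of the cells by half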
Description: SANGER: Inhibition of human NCI-H661 cell growth in a cell viability assay.

[52] = tested on: RMG-I; type: functional, cell-based, Homo sapiens; settings: Homo sapiens, RMG-I;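 also: growth inhibition of human RMG-I cells, read out with a cell viability assay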
Description: SANGER: Inhibition of human RMG-I cell growth in a cell viability assay.

Cc1ccc(Nc2nccc(N(C)c3ccc4c(C)n(C)nc4c3)n2)cc1S(N)(=O)=O [PAZOPANIB]
IC50 [1]: 1980 nM
IC50 [2]: > 8000 nM
IC50 [3]: > 8000 nM
IC50 [4]: > 8000 nM
IC50 [5]: > 8000 nM
IC50 [6]: 40 nM
IC50 [7]: > 8000 nM
IC50 [8]: > 8000 nM
IC50 [9]: > 8000 nM
IC50 [10]: 1120 nM
IC50 [11]: > 8000 nM
IC50 [12]: > 8000 nM
IC50 [13]: > 8000 nM
IC50 [14]: > 8000 nM
IC50 [15]: > 8000 nM
IC50 [16]: > 8000 nM
IC50 [17]: > 8000 nM
IC50 [18]: > 8000 nM
IC50 [19]: > 8000 nM
IC50 [20]: > 8000 nM
IC50 [21]: > 8000 nM
IC50 [22]: > 8000 nM
IC50 [23]: > 8000 nM
IC50 [24]: > 8000 nM
IC50 [25]: > 8000 nM
IC50 [26]: > 8000 nM
IC50 [27]: > 8000 nM
IC50 [28]: > 8000 nM
IC50 [29]: > 8000 nM
IC50 [30]: > 8000 nM
IC50 [31]: > 8000 nM
IC50 [32]: < 31.2 nM
IC50 [33]: 2650 nM
IC50 [34]: > 8000 nM
IC50 [35]: > 8000 nM
IC50 [36]: > 8000 nM
IC50 [37]: > 8000 nM
IC50 [38]: > 8000 nM
IC50 [39]: > 8000 nM
IC50 [40]: 2060 nM
IC50 [41]: > 8000 nM
IC50 [42]: > 8000 nM
IC50 [43]: > 8000 nM
IC50 [44]: > 8000 nM
IC50 [45]: > 8000 nM
IC50 [46]: 1280 nM
IC50 [47]: 6200 nM
IC50 [48]: > 8000 nM
IC50 [49]: 1640 nM
IC50 [50]: > 8000 nM
IC50 [51]: > 8000 nM
IC50 [52]: > 8000 nM

CN(c1ncccc1CNc1nc(Nc2ccc3c(c2)CC(=O)N3)ncc1C(F)(F)F)S(C)(=O)=O [PF-00562271]
IC50 [1]: > 2560 nM
IC50 [2]: > 2560 nM
IC50 [3]: > 2560 nM
IC50 [4]: > 2560 nM
IC50 [5]: 1670 nM
IC50 [6]: 1620 nM
IC50 [7]: > 2560 nM
IC50 [8]: > 2560 nM
IC50 [9]: > 2560 nM
IC50 [10]: > 2560 nM
IC50 [11]: > 2560 nM
IC50 [12]: > 2560 nM
IC50 [13]: > 2560 nM
IC50 [14]: > 2560 nM
IC50 [15]: > 2560 nM
IC50 [16]: > 2560 nM
IC50 [17]: > 2560 nM
IC50 [18]: > 2560 nM
IC50 [19]: > 2560 nM
IC50 [20]: > 2560 nM
IC50 [21]: > 2560 nM
IC50 [22]: > 2560 nM
IC50 [23]: > 2560 nM
IC50 [24]: > 2560 nM
IC50 [25]: > 2560 nM
IC50 [26]: > 2560 nM
IC50 [27]: > 2560 nM
IC50 [28]: > 2560 nM
IC50 [29]: > 2560 nM
IC50 [30]: > 2560 nM
IC50 [31]: > 2560 nM
IC50 [32]: > 2560 nM
IC50 [33]: > 2560 nM
IC50 [34]: > 2560 nM
IC50 [35]: > 2560 nM
IC50 [36]: > 2560 nM
IC50 [37]: > 2560 nM
IC50 [38]: > 2560 nM
IC50 [39]: 2520 nM
IC50 [40]: > 2560 nM
IC50 [41]: > 2560 nM
IC50 [42]: > 2560 nM
IC50 [43]: > 2560 nM
IC50 [44]: > 2560 nM
IC50 [45]: > 2560 nM
IC50 [46]: 1450 nM
IC50 [47]: > 2560 nM
IC50 [48]: > 2560 nM
IC50 [49]: > 2560 nM
IC50 [50]: > 2560 nM
IC50 [51]: > 2560 nM
IC50 [52]: > 2560 nM

Cn1cncc1[C@@](N)(c1ccc(Cl)cc1)c1ccc2c(c1)c(-c1cccc(Cl)c1)cc(=O)n2C [TIPIFARNIB]
IC50 [1]: 579 nM
IC50 [2]: 1030 nM
IC50 [3]: 2460 nM
IC50 [4]: > 16000 nM
IC50 [5]: < 62.5 nM
IC50 [6]: 5010 nM
IC50 [7]: 1960 nM
IC50 [8]: > 16000 nM
IC50 [9]: > 16000 nM
IC50 [10]: 2760 nM
IC50 [11]: > 16000 nM
IC50 [12]: 815 nM
IC50 [13]: 8850 nM
IC50 [14]: > 16000 nM
IC50 [15]: 11600 nM
IC50 [16]: 13600 nM
IC50 [17]: > 16000 nM
IC50 [18]: > 16000 nM
IC50 [19]: 9020 nM
IC50 [20]: 5180 nM
IC50 [21]: > 16000 nM
IC50 [22]: 4450 nM
IC50 [23]: > 16000 nM
IC50 [24]: 14200 nM
IC50 [25]: > 16000 nM
IC50 [26]: 8530 nM
IC50 [27]: > 16000 nM
IC50 [28]: 3210 nM
IC50 [29]: 1110 nM
IC50 [30]: 12300 nM
IC50 [31]: 342 nM
IC50 [32]: 6710 nM
IC50 [33]: 1060 nM
IC50 [34]: > 16000 nM
IC50 [35]: 805 nM
IC50 [36]: > 16000 nM
IC50 [37]: > 16000 nM
IC50 [38]: 10400 nM
IC50 [39]: 714 nM
IC50 [40]: 4180 nM
IC50 [41]: > 16000 nM
IC50 [42]: > 16000 nM
IC50 [43]: > 16000 nM
IC50 [44]: 2150 nM
IC50 [45]: 1340 nM
IC50 [46]: 285 nM
IC50 [47]: 1320 nM
IC50 [48]: > 16000 nM
IC50 [49]: 448 nM
IC50 [50]: > 16000 nM
IC50 [51]: 7500 nM
IC50 [52]: > 16000 nM

CCC1=C[C@@H]2CN(C1)Cc1c([nH]c3ccccc13)[C@@](C(=O)OC)(c1cc3c(cc1OC)N(C)[C@H]1[C@@](O)(C(=O)OC)[C@H](OC(C)=O)[C@]4(CC)C=CCN5CC[C@]31[C@@H]54)C2 [VINORELBINE]
IC50 [1]: 3.1 nM
IC50 [2]: 7.55 nM
IC50 [3]: > 64 nM
IC50 [4]: 3.26 nM
IC50 [5]: 4.32 nM
IC50 [6]: 0.232 nM
IC50 [7]: 3.78 nM
IC50 [8]: > 64 nM
IC50 [9]: > 64 nM
IC50 [10]: 1.49 nM
IC50 [11]: > 64 nM
IC50 [12]: 5.6 nM
IC50 [13]: 46.8 nM
IC50 [14]: > 64 nM
IC50 [15]: > 64 nM
IC50 [16]: > 64 nM
IC50 [17]: > 64 nM
IC50 [18]: 57.1 nM
IC50 [19]: > 64 nM
IC50 [20]: > 64 nM
IC50 [21]: 53.5 nM
IC50 [22]: 6.6 nM
IC50 [23]: 5.53 nM
IC50 [24]: 24.1 nM
IC50 [25]: 13.9 nM
IC50 [26]: 4.87 nM
IC50 [27]: > 64 nM
IC50 [28]: 1.93 nM
IC50 [29]: > 64 nM
IC50 [30]: 3.93 nM
IC50 [31]: 2.99 nM
IC50 [32]: 9.09 nM
IC50 [33]: 12.5 nM
IC50 [34]: > 64 nM
IC50 [35]: 4.6 nM
IC50 [36]: 32.7 nM
IC50 [37]: 24.5 nM
IC50 [38]: 25.2 nM
IC50 [39]: 5.79 nM
IC50 [40]: > 64 nM
IC50 [41]: 14.8 nM
IC50 [42]: 1.08 nM
IC50 [43]: 42.7 nM
IC50 [44]: 27.8 nM
IC50 [45]: 3.12 nM
IC50 [46]: 2.18 nM
IC50 [47]: 1.85 nM
IC50 [48]: > 64 nM
IC50 [49]: 10.2 nM
IC50 [50]: 20.1 nM
IC50 [51]: 20.4 nM
IC50 [52]: > 64 nM
